Patent EP4722195A1, “PH-SENSITIVE CATIONIC LIPID AND LIPID NANOPARTICLES” (National University Corporation Hokkaido University, priority 2023, dated 2024)

Assays:
liver = assay: Fluc activity in the liver of mice administered Fluc mRNA-loaded lipid nanoparticles; format: in vivo, BALB/c mice; settings: for Fluc activity in the liver at 6, 24, and 48 hours after administration: Example 28, Fig. 7, TxT-5-5A12β versus TxT-5-5A14 nanoparticles, 50/3/47/1.5 (mol%)
Protocol: (§1) Lipid nanoparticles were administered to mice by intravenous injection into the tail vein using a 27G needle. Unless otherwise specified, BALB/c mice (4 to 5 weeks old, female) were used.
(§2) First, BALB/c mice (female, 4 weeks old) were intravenously injected with lipid nanoparticles encapsulating Fluc mRNA (Fluc mRNA-loaded lipid nanoparticles) at a dose of 0.1 mg mRNA/kg. Six hours after intravenous injection, the mice were euthanized, each tissue was collected, frozen in liquid nitrogen, and stored at -80°C. The tissues were homogenized in passive lysis buffer (manufactured by Promega) using a bead-type cell disruptor (Micro Smash MS-100R, manufactured by TOMY Seiko). Tissue debris was removed by centrifugation, and the supernatant was collected. Fluc activity in the supernatant was measured using the Luciferase Assay System (E1500, manufactured by Promega) according to the manufacturer's protocol. Luminescence was measured using a luminometer (Luminescencer-PSN, manufactured by ATTO). Protein concentration was determined using a commercially available assay kit (BCA Protein Assay Kit, manufactured by Pierce). Fluc activity was expressed as relative light units (RLU) per mg of protein.
Subsequently, lipid nanoparticles encapsulating Fluc mRNA prepared using TxT-5-5A10, TxT-5-5A12, TxT-5-5A12β, TxT-5-5A14, and TxT-5-5A16 were administered to mice to evaluate luciferase expression levels (Fluc activity) in various tissues. Specifically, each Fluc mRNA-loaded lipid nanoparticle was administered to Balb/c mice at a dose of 0.1 mg mRNA/kg. Six hours after administration, the mice were euthanized, and their organs were collected to measure Fluc activity (RLU/mg protein) (N = 2 or 4).

transthyretin (TTR) = assay: TTR-targeted genome editing in mice, serum TTR (ELISA); format: in vivo, Balb/c mice; settings: for TTR knockout activity: serum TTR one week after administration, N = 3
Protocol: Specifically, an RNA solution was first prepared to contain Cas9-mRNA (TriLink, SmoU-modified) and gRNA targeting transthyretin (TTR) at a mass ratio of 1:2 (N/P = 6.0). Using this RNA solution, in the same manner as Example 27, lipid nanoparticles encapsulating Cas9-mRNA and TTR-gRNA (SEQ ID NO: 1) and having a composition of TxT/DSPC/chol/PEG-DMG = 50/3/47/1.5 (mol%) were prepared (lipid nanoparticles for TTR-targeted genome editing). […]
Subsequently, each of the prepared lipid nanoparticles for TTR-targeted genome editing was administered via tail vein injection to female Balb/c mice (4 weeks old) at a dose of 1.5 mg Cas9 mRNA/kg. […] The collected blood was allowed to stand at room temperature for 1 hour, followed by centrifugation at 25°C, 1,000 × g for 15 minutes. The supernatant was collected to obtain serum. The TTR concentration in the serum was measured using a commercially available ELISA kit (Prealbumin ELISA Kit Mouse, Aviva Systems Biology). Calibration samples were prepared by serial dilution from 500 ng/mL to obtain solutions of 250, 125, 62.5, 31.25, and 15.63 ng/mL, each in a volume of 300 µL. Serum samples were diluted 10,000-fold. A volume of 100 µL of each calibration sample and serum sample was applied to the plate and incubated at 25°C for 30 minutes. The wells were washed four times, and 100 µL of Enzyme-Antibody Conjugate was added to each well. The plate was shielded from light using aluminum foil and incubated at 25°C for 20 minutes. After another four washes, 100 µL of TMB Substrate Solution (Aviva Systems Biology) was added to each well, and the plate was shielded from light using aluminum foil and incubated at 25°C for 10 minutes. Finally, 100 µL of Stop Solution (Aviva Systems Biology) was added, and absorbance at 450 nm was measured using a spectrofluorometer (Varioskan Lux, Thermo Fisher Scientific).
Subsequently, the lipid nanoparticles for TTR-targeted genome editing were administered to mice and serum TTR levels (µg/mL) were measured (N = 3) in the same manner as in Example 32, except that a dose of Cas9-mRNA was adjusted to 0.1, 0.3, and 1.0 mg/kg. In the figure, "NT" indicates the measurement result of serum from mice that were not administered lipid nanoparticles.

hEPO = hEPO in the serum of mice administered hEPO mRNA-loaded lipid nanoparticles (ELISA); format: in vivo; settings: Example 29, Fig. 8, 6, 24, and 48 hours after administration, N = 3
Protocol: Subsequently, each hEPO mRNA-loaded lipid nanoparticle was administered to mice, and blood samples were collected from the tail vein at 6, 24, and 48 hours after administration (N = 3). The collected blood was allowed to stand at room temperature for 90 minutes, followed by centrifugation at 25°C, 1,000 x g for 15 minutes. The supernatant was collected to obtain serum. The hEPO activity in the serum was measured using a commercially available ELISA kit (Human EPO ELISA Kit, Invitrogen). Calibration samples were prepared by serial dilution from 100 mIU/mL to obtain solutions of […], each in a volume of 450 µL. Serum samples were diluted 10- to 10,000-fold to fall within the calibration range. A volume of 100 µL of each calibration sample and serum sample was applied to the plate, followed by the addition of […] of Biotin-Conjugate and incubation at 18 to 25°C for 1 hour. The wells were washed six times, and 100 µL of Streptavidin-HRP was added to each well and incubated at 18 to 25°C for 15 minutes. After another six washes, 100 µL of TMB Substrate Solution was added to each well, and the plate was shielded from light using aluminum foil and incubated at 18 to 25°C for 10 minutes. Finally, 100 µL of Stop Solution was added, and absorbance at 450 nm was measured using a spectrofluorometer (Varioskan Lux, Thermo Fisher Scientific).

various tissues = assay: Fluc activity in various tissues of mice administered Fluc mRNA-loaded lipid nanoparticles; format: in vivo, BALB/c mice; settings: Example 23, Figs. 2B to 2E; TxT-5-5A16/DSPC/chol/PEG-DMG=50/X/50-X/1.5 (mol%); 0.1 mg mRNA/kg; six hours
Protocol: as §1
as §2, with “protein. […]” for “protein.”

[1] = Example 32, Fig. 11, 1.5 mg Cas9 mRNA/kg tail vein
[2] = Example 23, Fig. 2A, TxT-5-5A16/DSPC/chol/PEG-DMG=50/X/50-X/1.5 (mol%), 0.1 mg mRNA/kg, six hours

## CCCCCCC(CCCC)CNC(=O)CCCC(=O)OCC(COC(=O)CCCC(=O)NCC(CCCC)CCCCCC)(COC(=O)CCCC(=O)NCC(CCCC)CCCCCC)NC(=O)CCN1CCCCC1 (stereo not drawn) [TxT-5-5A12β, 2-(((5-((2-butyloctyl)amino)-5-oxopentanoyl)oxy)methyl)-2-(3-(piperidin-1-yl)propanamido)propane-1,3-diyl bis(5-((2-butyloctyl)amino)-5-oxopentanoate)]
liver; N = 3
  Fluc activity in the liver at 6, 24, and 48 hours after administration: comparable levels of gene expression at all time points
Transthyretin (TTR); [1]
  TTR knockout activity: exceeding 85%
hEPO
  hEPO concentrations in serum compared to lipid nanoparticles comprising SM-102: clearly higher hEPO concentrations

## CCCCCCCN(CCCCCCC)C(=O)CCCC(=O)OCC(COC(=O)CCCC(=O)N(CCCCCCC)CCCCCCC)(COC(=O)CCCC(=O)N(CCCCCCC)CCCCCCC)NC(=O)CCN1CCCCC1 [TxT-5-5A14, 2-(((5-(diheptylamino)-5-oxopentanoyl)oxy)methyl)-2-(3-(piperidin-1-yl)propanamido)propane-1,3-diyl bis(5-(diheptylamino)-5-oxopentanoate)]
liver; Example 24, Fig. 3A, TxT/DSPC/chol/PEG-DMG=50/3/47/1.5 (mol%), 0.1 mg mRNA/kg, six hours
  Fluc activity (liver), comparison among TxT lipids: highest Fluc activity
liver; Example 25, Fig. 4, TxT-5-5A14 50/3/47/1.5, comparators 50/10/40/1.5 (mol%), 0.1 mg mRNA/kg, six hours, N = 3
  Fluc activity in the liver compared to lipid nanoparticles comprising other cationic lipids (SM-102, ALC-0315, MC3): significantly higher Fluc activity
liver; N = 3
  Fluc activity in the liver at 6, 24, and 48 hours after administration: comparable levels of gene expression at all time points
Transthyretin (TTR); [1]
  TTR knockout activity: exceeding 85%
Transthyretin (TTR); Example 33, Fig. 12, 0.1, 0.3, and 1.0 mg/kg
  TTR knockout efficiency versus dose: dose-dependent increase in TTR knockout efficiency
Transthyretin (TTR); Example 33, Fig. 12, dose of 0.3 mg RNA/kg
  TTR knockout activity: no less than 60%
hEPO
  hEPO concentrations in serum compared to lipid nanoparticles comprising SM-102: clearly higher hEPO concentrations

## CCCCCCCCN(CCCCCCCC)C(=O)CCCC(=O)OCC(COC(=O)CCCC(=O)N(CCCCCCCC)CCCCCCCC)(COC(=O)CCCC(=O)N(CCCCCCCC)CCCCCCCC)NC(=O)CCN1CCCCC1 [TxT-5-5A16, 2-(((5-(dioctylamino)-5-oxopentanoyl)oxy)methyl)-2-(3-(piperidin-1-yl)propanamido)propane-1,3-diyl bis(5-(dioctylamino)-5-oxopentanoate)]
Various tissues
  Effect of DSPC content on Fluc activity in the spleen, kidney, lung, and heart: no effect of DSPC content on Fluc activity was observed
liver; Example 22, Fig. 1, TxT/DSPC/chol/PEG-DMG=50/15/35/1.5 (mol%), 0.1 mg mRNA/kg intravenous, six hours after administration, comparison among TxT lipids
  Fluc activity in the liver: highest Fluc activity in the liver
liver; [2]
  Effect of DSPC content on Fluc activity in the liver: Fluc activity increased as the DSPC content decreased
  Fluc activity in the liver, 3 mol% DSPC compared to 15 mol% DSPC: approximately 10 times
